Measurements reported in ChEMBL document CHEMBL5344435 (J Med Chem, 2024).

Test: in vivo
Details: C57BL/6J, mouse, po, 10 mg/kg

`[O-][n+]1cc(O)cc(CCCc2ccc(Cl)c(C(F)(F)F)c2)c1` showed a Cmax at 24 h of 102 ng/mL.
